The numbers were not newly measured in patent publication EP0496548A1, “Carbacyclin analogs” (PURDUE RESEARCH FOUNDATION, priority 1991, dated 1992), which cites them from elsewhere.

The conditions of the data set: in vivo.

For the compound `CCCCC[C@H](O)/C=C/[C@@H]1[C@H]2C/C(=C/CCCC(=O)O)C[C@H]2C[C@H]1O` [carbacyclin], the serum half-life entry (attributed to enzymatic oxidation) was “comparable to that of prostacyclin”.
With `CCCCC[C@H](O)/C=C/[C@@H]1[C@H]2C/C(=C/CCCC(=O)O)O[C@H]2C[C@H]1O` [prostacyclin, Prostacyclin], the half-life – broadly, the time needed for the level to fall by half in the phase considered – ('generally') is 2 to 3 min.
